This note sets out measurements from the METLIN SMRT retention time set (Domingo-Almenara et al. 2019).

Molecules are shown by their SMILES.

The data set is described as follows: gradient 5% acetonitrile 3 min, to 50% in 2 min, to 85% in 15 min, held 3 min, 100 µL/min. The conditions noted are these: column: Zorbax Extend-C18 2.1 x 50 mm; eluents: water / acetonitrile, 0.1% formic acid. Summed up: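 Data were gathered over 3 months by HPLC coupled to a quadrupole time-of-flight mass spectrometer, operated in positive and negative ionization mode. Mixtures of ~100 pure standards ran on a Zorbax Extend-C18 column (2.1 × 50 mm, 1.8 μm) at 100 μL/min, with water and acetonitrile each containing 0.1% formic acid and dead and dwell volumes of 40 μL and 900 μL. Retention time was read from adduct peaks picked by computer and checked manually.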
For the molecule `Cc1ccc2cc(CCC(=O)NCc3nc4ccccc4n3C)c(=O)[nH]c2c1`, the RP-LC retention time is 617 s.

As to `CCN1C=C(C(=O)OCc2cc(F)cc(F)c2)C(C)=NS1(=O)=O`, the RP-LC retention time was determined as 926 s.

In turn, `CC(C)N1CCN(S(=O)(=O)c2cc(-c3nnc(C4CC4)o3)co2)CC1` returned an RP-LC retention time of 599 s.

Molecule `CCCc1nnsc1C(=O)N1CC(c2nc(Cc3ccccc3OC)no2)C1` showed an RP-LC retention time of 898 s.

Consider `CN(CCCNC(=O)C1CCc2nc(N3CCOCC3)ncc2C1)c1ccccc1` (centres undefined), for which the RP-LC retention time was determined as 602 s.

`O=C(c1ccccc1OCC1CCCN(C2CCC3(CC2)OCCO3)C1)N1CCCC1` (centres undefined) showed an RP-LC retention time of 622 s.

For the molecule `CCN1C(=O)COc2ccc(-c3noc(-c4ccccc4)n3)cc21`, the RP-LC retention time came out at 1140 s.

In turn, `CC(=O)NCc1csc(C2CCCN(C(=O)c3cccn3C)C2)n1` (centres undefined) registered an RP-LC retention time of 612 s.

Molecule `COc1ccc(C2C(=O)N(C3CCC(C)CC3)CC(=O)N2Cc2ccco2)cc1OC` (centres undefined) showed an RP-LC retention time of 883 s.

Regarding `CCN(CC)C(=O)c1ccc2c(c1)N(CC(=O)NCc1ccc3c(c1)OCO3)C(=O)C1CCCCN21` (centres undefined), the RP-LC retention time was 826 s.

With `O=C(c1ccco1)N1CCN(C(=O)c2cccn2CC(=O)N2CCc3ccccc32)CC1`, the RP-LC retention time came out at 711 s.

Turning to `CCNC(=O)C1CCCN(S(=O)(=O)c2ccc(OC)c(OC)c2)C1` (centres undefined), the RP-LC retention time was 684 s.

On to `Cc1ccc(CNC(=O)C2(C)Cn3nc(C)cc3C(=O)N2c2ccc3c(c2)OCCO3)cc1` (centres undefined), for which the RP-LC retention time stood at 809 s.

Molecule `CCCn1cc(CCNS(=O)(=O)c2ccc(Cl)c(Cl)c2)c2cccnc21` displayed an RP-LC retention time of 1000 s.

For the molecule `CCN1CCN(CCCNS(=O)(=O)c2cccc(-c3nc(-c4ccc(C)cc4)no3)c2)CC1`, the RP-LC retention time was 690 s.

As for `COc1cccc(CN2N=C(C(=O)N3CCOCC3)S(=O)(=O)c3ccc(Cl)cc32)c1`, the RP-LC retention time is 887 s.

`O=C(Nc1cc(F)c(F)c(F)c1)N1C[C@H]2C[C@H](C1)[C@H]1CCCC(=O)N1C2` registered an RP-LC retention time of 717 s.

The molecule `CCOc1ccc(CNc2nc3ccccc3n2CCN(CC)CC)cc1` registered an RP-LC retention time of 1300 s.

As to `O=S(=O)(c1ccccc1Br)N1CCc2nc(-c3ccccc3)ncc2C1`, the RP-LC retention time was found to be 1090 s.

`CCN(CC)S(=O)(=O)c1ccc(Cl)c(-c2nnc(-c3cccc(C)c3)o2)c1` returned an RP-LC retention time of 1170 s.

With `CCOC(=O)c1ccc2nc(C(F)(F)F)nc(N3CCc4ccccc4C3)c2c1`, the RP-LC retention time came out at 1200 s.

As for `Cc1nc(N)n(CC(=O)NCc2ccccc2)c(=O)c1C`, the RP-LC retention time was found to be 611 s.

With `Cc1ccc(-c2cn3c(n2)N(C(=O)c2cnn4cccnc24)CCC3)cc1`, the RP-LC retention time was determined as 613 s.

In turn, `O=C(Cc1ccc(NC(=O)C2CC2)cc1)NCc1cccs1` yielded an RP-LC retention time of 659 s.

Molecule `CCOc1ccccc1CN1CC(CO)C2(CCNCC2)C1` (centres undefined) had an RP-LC retention time of 520 s.

`CS(=O)(=O)N1CCC(CNC(=O)NC(c2ccccc2)c2ccccc2)CC1` returned an RP-LC retention time of 732 s.

In turn, `Cc1ccc(S(=O)(=O)N2CCN(C(=O)c3ccccc3Cl)CC2)cc1C` returned an RP-LC retention time of 669 s.

With `O=C(CN1C(=O)COc2ccc(C(=O)N3CCCCC3)cc21)NCc1ccco1`, the RP-LC retention time was determined as 691 s.

Take `Cc1cccc(CN2C(=O)C3(CCOCC3)CC2c2nnnn2C(C)(C)C)c1` (centres undefined): the RP-LC retention time was determined as 833 s.

`O=S(=O)(c1c(Cl)cccc1Cl)N1CCN(Cc2ccc3c(c2)OCO3)CC1` displayed an RP-LC retention time of 595 s.

In turn, `CCc1c(C)nc2nc(-c3ccccc3)nn2c1NCc1ccc(C)cc1` showed an RP-LC retention time of 996 s.

In the case of `Cc1nc2c(NC(=O)c3ccccn3)cccn2n1`, the RP-LC retention time turned out to be 763 s.

`O=C(C1CCN(c2ncccc2-c2nc(-c3ccccc3)no2)CC1)N1CCOCC1` registered an RP-LC retention time of 839 s.

With `COc1ccc(C(=O)Nc2cc(C(=O)O)ccc2N2CCN(c3ncccn3)CC2)cc1`, the RP-LC retention time stood at 836 s.

For `COc1ccc(CN2C[C@@H]3C(=O)N(CCCN4CCCC4=O)C(=O)[C@@H]3C2)c(OC)c1`, the RP-LC retention time was found to be 598 s.

Molecule `CC(NC(=O)C1CCN(c2cc(N3CCCC3)ncn2)CC1)c1ccccc1` (centres undefined) showed an RP-LC retention time of 644 s.

Molecule `COc1cccc(N2CCN(c3ccc(-c4nc(-c5cccc(F)c5)no4)cn3)CC2)c1` returned an RP-LC retention time of 1310 s.

`CC(C)Oc1ccc(-c2noc(Cn3ncn4nc(-c5cccs5)cc4c3=O)n2)cc1` had an RP-LC retention time of 1150 s.

`COC(=O)c1cc2c(=O)n(Cc3ccc(OC)cc3)ccc2nc1C` had an RP-LC retention time of 836 s.

Turning to `Cc1cccc(-c2noc(C3CCCN3S(=O)(=O)c3ccc(Br)cc3)n2)c1` (centres undefined), the RP-LC retention time worked out at 1230 s.

Turning to `CCC(=O)NCCc1csc(C2CCN(C(=O)C3CCC3)CC2)n1`, the RP-LC retention time was determined as 679 s.

On to `CCCCCn1c(=O)c2c(nc3n2CCN3c2ccc(OC)cc2)n(C)c1=O`, for which the RP-LC retention time was 1010 s.

For `COc1cccc(N2N=NC3C(=O)N(c4ccc(OC)c(OC)c4)C(=O)C32)c1` (centres undefined), the RP-LC retention time was found to be 852 s.

`CCn1ccc2ccc(CCC(=O)N3CCN(c4ccc(F)cc4)CC3)cc21` registered an RP-LC retention time of 1030 s.

`CC1(C)N=C(N)N=C(N)N1c1ccc(CCCCc2ccc(Cl)cc2Cl)cc1`: the RP-LC retention time stood at 878 s.

`Cc1nc(N)nc(Cl)c1CCC1OCCO1` showed an RP-LC retention time of 673 s.

`O=S(=O)(CCc1noc(-c2ccc3cc[nH]c3c2)n1)c1ccccc1` showed an RP-LC retention time of 912 s.

`COCCNC(=O)CN1CCN(c2cc(C(=O)O)c3cc(NC(=O)c4ccccc4)ccc3n2)CC1`: the RP-LC retention time was 592 s.

Regarding `CCOC(=O)C1CCCN(C(=O)c2cc3c(=O)n(C)c(=O)n(C)c3s2)C1` (centres undefined), the RP-LC retention time is 674 s.

As to `Cc1ccc(-c2nc3sc(N4CCCCC4)nn3c2NC(=O)c2ccnn2C)cc1`, the RP-LC retention time worked out at 887 s.

The molecule `O=C(Cn1cccc(S(=O)(=O)N2CCCCCC2)c1=O)N1CCCc2ccccc21` had an RP-LC retention time of 850 s.

As to `CCOC(=O)c1noc2ncnc(NCc3cccc(Cl)c3)c12`, the RP-LC retention time was 1040 s.

`COc1ccc(OCC2CN(C(=O)Cc3ccc(OC)c(OC)c3OC)CCO2)cc1` (centres undefined) yielded an RP-LC retention time of 794 s.

In turn, `O=C(Nc1cccc2cccnc12)C1COCC(=O)N1Cc1ccccc1` (centres undefined) returned an RP-LC retention time of 777 s.

Consider `Cc1ccc(N2C(=O)CN(S(C)(=O)=O)CC2(C)C(=O)NCc2ccc(F)cc2)cc1C` (centres undefined), for which the RP-LC retention time stood at 818 s.

As to `CCOC(=O)c1ccccc1NC(=O)N1CCC2(CC1)NC(=O)c1ccccc1O2`, the RP-LC retention time was 922 s.

In turn, `CCNC(=O)c1sc(Nc2ccc(Cl)cn2)nc1C` registered an RP-LC retention time of 726 s.

`Cc1ccc(Cl)cc1NC(=O)CSc1cc(N2CCN(c3ccccc3F)CC2)ncn1`: the RP-LC retention time was determined as 1280 s.

Turning to `CCOc1ccccc1NC(=O)CSc1nnc2c3cc(-c4ccc(F)cc4)nn3ccn12`, the RP-LC retention time was 948 s.

On to `Cn1nc2n(c1=O)CCN(C(=O)c1ccn[nH]1)CC2`, for which the RP-LC retention time was found to be 552 s.

Take `CC(C)n1c(=O)n(CC(=O)N2CCCc3ccccc32)c2cc(S(=O)(=O)N3CCCC3)ccc21`: the RP-LC retention time stood at 947 s.

`CSc1ccc(C(=O)NC2CCCCC2NC(=O)CNC(=O)c2cc(C(F)(F)F)ccc2NC(=O)NC(C)C)cc1` (centres undefined) displayed an RP-LC retention time of 924 s.

`Cc1ccc2c(c1)N(Cc1ccccc1)N=C(C(=O)N1CCCC1)S2(=O)=O` had an RP-LC retention time of 876 s.

As for `COc1cccc(OCC2c3ccsc3CCN2C(=O)CN(C(=O)NC(C)C)C2CC2)c1` (centres undefined), the RP-LC retention time was found to be 918 s.

Molecule `COc1ccc(NC(=O)CN2C(=O)NC3(CCC(C)CC3)C2=O)c(OC)c1` (centres undefined) displayed an RP-LC retention time of 827 s.

Take `Cc1ccc(N2C(=O)N(Cc3ccccc3F)S(=O)(=O)c3cccnc32)cc1`: the RP-LC retention time was determined as 1050 s.

`CN(C)S(=O)(=O)c1ccc(C(=O)N2CCC(Oc3nc4ccccc4s3)CC2)cc1` had an RP-LC retention time of 892 s.

As for `Cc1cc(N(C)C)nc(NCCNC(=O)C2CCCC2)n1`, the RP-LC retention time was determined as 545 s.

In turn, `CCc1nnc2ccc(-c3noc(-c4ccc(OC)c(OC)c4)n3)cn12` returned an RP-LC retention time of 829 s.

For `CC1Cc2ccccc2N1C(=O)CCC(=O)N1CCN(c2cc(=O)n(C(C)C)c(=O)n2C(C)C)CC1` (centres undefined), the RP-LC retention time stood at 890 s.

For the molecule `Cc1cc(C)cc(NC(=O)Cn2c(N3CCOCC3)nc(C)cc2=O)c1`, the RP-LC retention time worked out at 711 s.

In turn, `COc1ccc(NC(=O)Nc2nccn(-c3cccc(F)c3)c2=O)cc1OC` returned an RP-LC retention time of 798 s.

For the molecule `Cc1noc(CNC(=O)COc2cccc3c2OC(C)(C)C3)n1`, the RP-LC retention time turned out to be 724 s.

The molecule `Cc1ccc(CN2CCN(C(=O)C3CCc4nc(N5CCOCC5)ncc4C3)CC2)cc1C` (centres undefined) showed an RP-LC retention time of 623 s.

Molecule `COc1ccc(-c2c(C)noc2NC(C)=O)cc1S(=O)(=O)Nc1ccc(C)cc1Cl` displayed an RP-LC retention time of 837 s.

With `Cc1ccccc1CNC(=O)C1CCCN(C(=O)C2Sc3ccccc3NC2=O)C1` (centres undefined), the RP-LC retention time was found to be 760 s.

For `Cc1ccc(CNC(=O)c2c(C)oc3ccn(C)c(=O)c23)cc1`, the RP-LC retention time is 919 s.

For `CCOC(=O)c1c(C)oc2ncnc(NC3CCCc4ccccc43)c12` (centres undefined), the RP-LC retention time came to 1310 s.

`Cc1ccc2c(c1)N(S(C)(=O)=O)CCC(C(=O)Nc1ccc(C(C)C)cc1)O2` (centres undefined) returned an RP-LC retention time of 1130 s.
